Data from patent publication US4144242A, “Process for the purification of clavulanic acid” (Glaxo Laboratories Limited, priority 1975, dated 1979).
Counter-ions that a name gives are not always drawn. Like-named read-outs stand apart in the source and are kept apart here.

Assays:
[1] = pKa by potentiometric titration of the salt; format: physicochemical
[2] = test system: gram-negative and gram-positive microorganisms; experiment: Antibacterial activity; format: cell-based; conditions: range of gram-negative and gram-positive microorganisms
[3] = test system: β-lactamases produced by gram-positive organisms and by gram-negative organisms in classes I-V; experiment: Stability to the action of β-lactamases; format: biochemical; conditions: β-lactamases of S. aureus, B. cereus and gram-negative classes I-V (Richmond and Sykes)
[4] = test system: β-lactamase enzymes; experiment: Inhibition of β-lactamase enzymes; format: biochemical, gram-positive and gram-negative bacteria
[5] = Stability in aqueous solution / on storage; format: physicochemical
[6] = Solubility of lithium clavulanate in aqueous lithium chloride; format: physicochemical; conditions: about 20° C., read-out: Solubility in mz/ml of lithium clavulanate (approximate)
Protocol: The eluate will normally contain the lithium salt, e.g. lithium chloride, at a concentration in the range 0.5 to 2.5M whereas, as indicated above, the salting out effect is most efficient at concentrations in the range 5M to 10 M. It is therefore preferred to concentrate the eluate, for example by evaporation in vacuo, e.g. by a factor of about 5. The solubility of lithium clavulanate at about 20° C. in various concentrations of aqueous lithium chloride is given in the following table: […]

[7] = Uptake of atmospheric water (hygroscopicity); format: physicochemical
Protocol: The solid was hygroscopic. It was ground in a pestle and mortar and allowed to take up atmospheric water at 18° C. After about 22% (w/w) of water was taken up, an equilibrium was reached.

O=C(O)[C@H]1/C(=C/CO)O[C@@H]2CC(=O)N21 [calcium salt]
pKa ([1]; read-out: pKa value of the corresponding acid): ~2.4

O=C(O)[C@H]1/C(=C/CO)O[C@@H]2CC(=O)N21 [clavulanic acid, (2R, 5R, Z)-3-(2-hydroxyethylidene)-7-oxo-4-oxa-1-azabicyclo[3,2,0]heptane-2-carboxylic acid]
antibacterial activity [2]: have antibacterial activity
stability to the action of β-lactamases [3]: stable
inhibition of class I β-lactamase enzymes ([4]; a number of class I enzymes (e.g. Bacteroides fragilis, Proteus vulgaris, Proteus morganii, Proteus rettgeri, Enterobacter cloacae, Citrobacter freundii, Providencia species, Hafnia alvei)): inhibited
ability to inhibit β-lactamase enzymes ([4]; enzymes of gram-positive organisms (S. aureus, B. cereus) and classes II-V from gram-negative bacteria): possess the ability to inhibit β-lactamase enzymes
stability of the free acid ([5]; after its formation): rather unstable
stability in aqueous solution ([5]; aqueous solution, dependence on pH): rather unstable in aqueous solution outside the pH range 5.5 to 8

O=C(O)[C@H]1/C(=C/CO)O[C@@H]2CC(=O)N21 [lithium clavulanate]
solubility ([6]; 2.5 M aqueous LiCl): 23500 µg/mL
solubility ([6]; 3.75 M aqueous LiCl): 10200 µg/mL
solubility ([6]; 5.0 M aqueous LiCl): 4100 µg/mL
solubility ([6]; 6.25 M aqueous LiCl): 1800 µg/mL
solubility ([6]; 7.5 M aqueous LiCl): 800 µg/mL
pKa value of the corresponding acid ([1]; listed as lithium salt): about 2.3

O=C(O)[C@H]1/C(=C/CO)O[C@@H]2CC(=O)N21 [sodium salt, sodium clavulanate]
hygroscopicity ([7]; crystalline solid): hygroscopic
water taken up at equilibrium ([7]; ground solid, atmospheric water at 18° C.): about 22 % (w/w)
